According to patent publication US9700024B2 (priority 2010, dated 2017):
Entries after “also recorded” stand apart in the source; their conditions may differ.

What was measured:
[1] = tested on: rat model of preeclampsia; details: Hypertension 2007; 50(4): 686-92; cited from earlier work
mPIGF [2] = assay: Circulating mPIGF in wild-type female mice not treated with viral vector; type: in vivo, mouse
Protocol: Pravastatin sodium salt (Cayman Chemical) was dissolved in 100% ethanol to produce a stock solution (1 mg/mL), which was diluted by sterile PBS (25 μg/mL) before use and intraperitoneally injected every day starting from E7.5 to E18.5 at 5 μg/animal unless specifically instructed otherwise.
(§1) Blood samples were allowed to clot and were centrifuged to prepare serum samples. Concentrations of hsF1T1, mVEGF, and mPIGF were measured with ELISA kits, according to the manufacturer's instructions (R&D system). Aspartate aminotransferase (AST) and alanine transaminase (ALT) were measured by Fuji dry-chem 3500V and dri-chem slides (Fuji Film.co). Urine samples were collected at E18.5. Urine albumin and creatinine concentrations were measured by using the Fuji dry-chem 3500V and dri-chem slides (Fuji Film.co, Tokyo Japan).

mPIGF [3] = assay: mPIGF concentration in the mother's blood by ELISA, LV-hsFLT1 model; type: in vivo, mouse; details: E18.5, pravastatin every day from E7.5, n=7
Protocol: as §1

[4] = tested on: pups of the pravastatin-treated female animals; assay: Deformity in pups of treated female animals
hsFLT1 = hsFLT1 concentration in the mother's blood by ELISA; type: in vivo, mouse; details: E18.5; LV-hsFLT1 100 ng-p24/mL; pravastatin every day from E7.5 where given; mean±s.e.m.
Protocol: as §1

[5] = tested on: pregnancy-induced hypertension syndrome model mice (placenta-specific hsFLT1 expression); assay: Urinary albumin/creatinine (proteinuria) in model mice; type: in vivo, mouse; details: urine at E18.5; average ± S.E.M.
Protocol: as §1

wild-type pregnant mice = details: normal pregnant animals without LV-hsFLT1
Protocol: Blood pressure was measured by the tail-cuff method (Softron Ltd, Tokyo, Japan). The mice were lightly fixed in a small cage without anesthesia, and their blood pressure was measured after their behavior, heart rate, and blood pressure stabilized. After stabilization, both systolic and diastolic blood pressures were recorded at least five times until the stabilization became unstable. Mean values of both the systolic and diastolic blood pressures measured as mentioned above were used for further statistical analysis.

mVEGF = mVEGF concentration in the mother's blood by ELISA; type: in vivo, mouse; details: E18.5; LV-hsFLT1 model; pravastatin every day from E7.5; n=6
Protocol: as §1

[6] = tested on: human umbilical vein endothelial cells (HUVECs); assay: In vitro expression of PIGF as an effect of statin, HUVEC; type: cell-based; details: statin 1 μM or 10 μM, 24 hours
Protocol: For HUVEC cells, each of the stock solutions was added upon dilution to 1 μM or 10 μM in a culture medium.
HUVEC and HEK293T cells were plated at 2×10^4 and 1×10^5 cells per well in 6-well plates, respectively, and incubated under 5% CO2 at 37° C. After 24 hours, the medium was replaced with a fresh medium containing or not containing a statin. The media collected after another 24 hours were centrifuged at 1,000×g, and the supernatants were subjected to ELISA.

[7] = tested on: hypertension induced by sFLT1 expressed by an adenovirus; details: Hypertension 2009; 54(5): 1129-35; cited from earlier work

VEGF
hypertension [1]: improves hypertension

CC[C@H](C)C(=O)O[C@H]1C[C@H](O)C=C2C=C[C@H](C)[C@H](CC[C@@H](O)C[C@@H](O)CC(=O)O)[C@H]21 [pravastatin, Monosodium(3R,5R)-3,5-dihydroxy-7-{(1S,2S,6S,8S,8aR)-6-hydroxy-2-methyl-8-[(2S)-2-methylbutanoyloxy]-1,2,6,7,8,8a-hexahydronaphthalen-1-yl}heptanoate]
circulating mPIGF (mPIGF [2]; wild-type non-pregnant female animals, n=5): 29.8 ± 13.2 pg/mL
circulating mPIGF (mPIGF [2]; wild-type pregnant female animals, n=4): 152.0 ± 19.7 pg/mL
mPIGF concentration in maternal blood (mPIGF [3]): 116.6 ± 13.2 pg/mL
deformity in the pups [4]: did not notice any deformity
circulating hsFLT1 concentration in the mother's blood (hsFLT1): 0.99 ± 0.65 ng/mL
ALBUMIN/CREATININE AVERAGE [5]: 4.06 ± 0.38
blood pressure / hypotensive effect (wild-type pregnant mice): not hypotensive; also recorded: did not change
mVEGF protein level in maternal blood (mVEGF): 35.5 ± 13.6 pg/mL

CC(C)c1c(C(=O)Nc2ccccc2)c(-c2ccccc2)c(-c2ccc(F)cc2)n1CC[C@@H](O)C[C@@H](O)CC(=O)O [atorvastatin, (−)-Monocalcium bis {(3R,5R)-7-[2-(4-fluorophenyl-5-isopropyl-3-phenyl-4-phenylcarbamoyl-1H-pyrrol-1-yl]-3,5-dihydroxyheptanoate}trihydrate]
PIGF production in supernatant [6]: induced PGF production; also recorded: induce PIGF production

B1: recombinant PIGF: recombinant placental growth factor 2 (literature) (protein)
chain: VHSQGALSAGNNSTEVEVVPFNEVWGRSYCRPMEKLVYILDEYPDEVSHIFSPSCVLLSRCSGCCGDEGLHCVPIKTANITMQILKIPPNRDPHFYVEMTFSQDVLCECRPILETTKAERRKTKGKRKRSRNSQTEEPHP
hypertension [7]: improves hypertension
